Measured values: publication PMC12474757, “Paving the way for future PSMA inhibitors: insights from comparative preclinical evaluations of structure modifications” (EJNMMI Radiopharmacy and Chemistry, 2025)

System: LNCaP tumour-bearing mice
Experiment: Ex vivo biodistribution in LNCaP tumour-bearing mice
Parameters: species or system SCID mice
Protocol: The eight-week-old male SCID mice (Charles River, Massachusetts, USA) were used to generate the mouse tumour model. The implantation of 10 million LNCaP cells (ATCC, Virginia, USA) per mouse in a 1:1 mixture of Matrigel matrix (Corning, New York, USA) was performed subcutaneously behind the right shoulder of the mouse. Tumours of adequate size, representing a volume of 100–300 mm³, were observed after five to six weeks.
Ex vivo biodistribution of PSMA inhibitors in tumor-bearing mice was conducted as follows. Concisely, 30 µL of acetate buffer was added to the each ⁶⁸Ga -labelled inhibitor, namely: ⁶⁸Ga-P15, ⁶⁸Ga-P16, ⁶⁸Ga-P19, and ⁶⁸Ga-PSMA-617 to achieve physiological pH. Mice were r.o. injected with 100 µL of labelled inhibitor (2 MBq, approximately 0.5 µg of the inhibitor). Animals were divided into two groups for biodistribution studies at 1 and 2 h after administration of the respective ^68Ga-labelled PSMA inhibitor. The animals were sacrificed and autopsied after euthanasia, and organs: spleen, pancreas, stomach, intestine, kidney, liver, heart, lung, muscle, bone, and tumour were collected in scintillation vials. The vials containing the samples were weighed and measured in a Wizard2 gamma counter (PerkinElmer, USA). The measured values were then adjusted for radionuclide decay and expressed as a percentage of administered dose per gram of organ (%ID/g). The NanoScan® hybrid Positron Emission Tomography/Computed Tomography (PET/CT) machine (Mediso, Budapest, Hungary) was used for in vivo imaging specifically whole-body helical PET/CT scans. Imaging settings were: single field of view (FOV) PET scans (98.5 mm) which took 10 min for each mouse and helical CT scans (50 kVp/980 µA, 720 projections) both took place one hour after the administration. Each mouse received an injection of approximately 10 MBq of tested radiopharmaceutical. To prevent the mice’s eyes from drying out during anaesthesia eye ointment (Ophthalmo-Azulen, Zentiva, CR) was applied. Image reconstruction was performed using Mediso Tera-Tomo 3D PET iterative reconstruction (Mediso Medical Imaging Systems, Budapest, Hungary). Both reconstruction and data evaluation were performed in Mediso InterView FUSION software (Mediso Medical Imaging Systems, Budapest, Hungary) (Mediso, Budapest, Hungary). Final images were normalised to injected activity and animal weight. All organs with radiopharmaceutical accumulation were roughly delineated on the images, while their SUVmax value was recorded. The SUV41% (Standardized Uptake Value 41%) was then calculated as 41% of each SUVmax value of given hotspot and the ROI was delineated based on this value (Boellaard et al. [2015]). All images were exported in maximum intensity projection (MIP) mode. The results from the ex vivo biodistribution study were subjected to statistical analysis, namely unpaired Student’s t-test (Microsoft Excel 365, USA).

[1] = one-hour p.i., mean ± SD, n = 4

tumour-to-muscle ratio of [68Ga]Ga-PSMA-617 relative to that of the inhibitor (one-hour p.i.) | Accumulation in the spleen (one-hour p.i., n = 4) [% ID/g] | Accumulation in the spleen (two-hours p.i., n = 4) [% ID/g] | tumour-to-muscle ratio, fold lower than [68Ga]Ga-PSMA-617 (Fig. 5) | tumour uptake, fold lower than [68Ga]Ga-P16 (one-hour p.i.) | tumour uptake, fold lower than [68Ga]Ga-P16 (two-hours p.i.) | Accumulation in the tumour (two-hours p.i., n = 4) | tumour-to-blood ratio, times higher than [68Ga]Ga-PSMA-617 (one hour after administration) | level in the kidney, times lower compared to [68Ga]Ga-PSMA-617 (one hour after administration, p < 0.05) | tumour-to-blood ratio [1] | tumour-to-kidney ratio [1] | Accumulation in the tumour (one-hour p.i., n = 4) [% ID/g] | tumour-to-kidney ratio (two hours post injection, mean ± SD, n = 4) | Structure (SMILES)
more than twice | 7.7 | 9.6 | – | – | – | – | – | – | – | – | – | – | O=C([O-])CN1CCN(CC(=O)[O-])CCN(CC(=O)N[C@H]2CC[C@H](NC(=O)[C@H](Cc3ccc4ccccc4c3)NC(=O)CC[C@H](NC(=O)N[C@@H](CCC(=O)O)C(=O)O)C(=O)O)CC2)CCN(CC(=O)[O-])CC1.[68Ga+3] [[^68Ga]Ga-P16]
~7.5 times | – | – | more than 7 fold | more than 5 fold | up to 10 fold | 0.5% | – | – | – | – | – | – | O=C([O-])CN1CCN(CC(=O)[O-])CCN(CC(=O)N[C@H]2CC[C@H](NC(=O)[C@@H](Cc3ccc4ccccc4c3)NC(=O)CC[C@H](NC(=O)N[C@@H](CCC(=O)O)C(=O)O)C(=O)O)CC2)CCN(CC(=O)[O-])CC1.[68Ga+3] [[^68Ga]Ga-P15]
more than 1.6 times | – | – | – | – | – | 2.0 % ID/g | more than 1.5 times | up to 7 times | 9.0 ± 2.3 | 0.85 ± 0.36 | 3.5 | 0.85 ± 0.02 | O=C([O-])CN1CCN(CC(=O)[O-])CCN(CC(=O)NCc2ccc(C(=O)N[C@H](C(=O)NCCCC[C@H](NC(=O)N[C@@H](CCC(=O)O)C(=O)O)C(=O)O)C(c3ccccc3)c3ccccc3)cc2)CCN(CC(=O)[O-])CC1.[68Ga+3] [[^68Ga]Ga-P19]
